Measured values: ChEMBL document CHEMBL1201862, “PubChem BioAssay data set” (2004)
Activity calls are given as the source filed them.

How the values were obtained:
[1] = reduction of Shn3 3'UTR-driven luciferase in osteoblasts – cell-based, Clone20 osteoblasts, firefly luciferase, cherry-picked, dose response (AID 624132); type: functional;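 note: firefly luciferase luminescence from reporter carrying the Shn3 3'UTR in osteoblasts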
[2] = target: Eukaryotic translation initiation factor 4E (Mus musculus, UniProt P63073); test: blockers of eIF4G binding by eIF4E – biochemical, TR-FRET, dose response (AID 855); type: functional;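 note: potency for disrupting eIF4E binding to eIF4GI seen as loss of FRET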
[3] = non-specific 3'UTR reporter inhibition in Clone20-Shn3RL – cell-based, Renilla luciferase, cherry-picked, counter-screen for Shn3 inhibitor project, dose response (AID 624133); type: functional
BJ [4] = test: BJ-TERT fibroblast viability loss – cell-based, RAS-independent, luminescence, dose response (AID 1933); type: functional; conditions: Homo sapiens
[5] = loss of viability in HepG2 cells – cell-based, CellTiter-Glo, cherry-picked, cytotoxicity control for Shn3 inhibitor project, dose response (AID 624134); type: functional
Ion channel NompC = Ion channel NompC (Danio rerio, UniProt Q7T1G6); test: Dose response cell-based high-throughput screening assay for agonists of the transient receptor potential channel N1 (TRPN1). [Related pubchem assays (depositor defined):AID1424, AID1448]; type: functional
[6] = HepG2 cell cytotoxicity, dose response, cytotoxicity control for non-replicating M. tuberculosis project (AID 489018); type: functional; conditions: Mycobacterium tuberculosis
[7] = Vero E6 cell cytotoxicity, dose response, cytotoxicity control for non-replicating M. tuberculosis project, secondary assay (AID 492998); type: functional, VeroE6; conditions: Vero C1008
[8] = THP-1 cell cytotoxicity, dose response, cytotoxicity control for non-replicating M. tuberculosis project (AID 489025); type: functional
BJ [9] = test: cells; type: functional, cell-based; conditions: Homo sapiens
[10] = DRD fibroblast viability loss – cell-based, non-viral oncogenic, luminescence, dose response (AID 1934); type: functional; conditions: Homo sapiens
BJ [11] = test: BJ-TERT-LT-ST fibroblast viability loss – cell-based, RAS-independent, luminescence, dose response (AID 1935); type: functional; conditions: Homo sapiens;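 note: BJ fibroblasts immortalized with TERT plus LT and ST oncogenes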
[12] = NIH3T3 cell viability loss – ATP luminescence, mouse fibroblasts, counter-screen, dose response (AID 2010); type: functional, cell-based;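 note: cells exposed to compound for about 90 hours before reading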
Mucolipin-3 = Mucolipin-3 (Homo sapiens, UniProt Q8TDD5); test: Fluorescence counterscreen assay for […] agonists: dose response cell-based high-throughput screening assay to identify agonists of the transient receptor potential channel ML3 (TRPML3). [Related pubchem assays: 1424, 1448 ]; type: functional
cells = type: functional
[13] = Trypanosoma cruzi growth suppression in host cells – NIH3T3 host cells, beta-gal luminescence, confirmation (AID 2044); type: functional, cell-based;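 note: intracellular parasites grown in NIH/3T3 mouse fibroblasts as host cells; luminescent beta-galactosidase reporter signal from transgenic T. cruzi replicating inside host cells; inhibitors lower the luminescence signal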
BJ [14] = test: growth inhibition of engineered Ras-driven BJ cells – cell-based, alamar blue fluorescence, cherrypicked samples, dose response (AID 2631); type: functional; conditions: Homo sapiens;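 note: confirmatory dose-response assay in RAS-dependent BJ fibroblasts engineered with TERT, LT and ST, with cytotoxicity read by fluorescence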
Protein RecA = target: T1, Protein RecA (Mycobacterium tuberculosis, UniProt P9WHJ3); test: Fluorescence Cell-Free Homogeneous Dose Retest to Identify Inhibitors of RecA-Intein Splicing Activity. [Related pubchem assays (depositor defined):AID2097, AID2223, AID489010, AID492950]; type: functional
T1 sequence (P9WHJ3 whole entry): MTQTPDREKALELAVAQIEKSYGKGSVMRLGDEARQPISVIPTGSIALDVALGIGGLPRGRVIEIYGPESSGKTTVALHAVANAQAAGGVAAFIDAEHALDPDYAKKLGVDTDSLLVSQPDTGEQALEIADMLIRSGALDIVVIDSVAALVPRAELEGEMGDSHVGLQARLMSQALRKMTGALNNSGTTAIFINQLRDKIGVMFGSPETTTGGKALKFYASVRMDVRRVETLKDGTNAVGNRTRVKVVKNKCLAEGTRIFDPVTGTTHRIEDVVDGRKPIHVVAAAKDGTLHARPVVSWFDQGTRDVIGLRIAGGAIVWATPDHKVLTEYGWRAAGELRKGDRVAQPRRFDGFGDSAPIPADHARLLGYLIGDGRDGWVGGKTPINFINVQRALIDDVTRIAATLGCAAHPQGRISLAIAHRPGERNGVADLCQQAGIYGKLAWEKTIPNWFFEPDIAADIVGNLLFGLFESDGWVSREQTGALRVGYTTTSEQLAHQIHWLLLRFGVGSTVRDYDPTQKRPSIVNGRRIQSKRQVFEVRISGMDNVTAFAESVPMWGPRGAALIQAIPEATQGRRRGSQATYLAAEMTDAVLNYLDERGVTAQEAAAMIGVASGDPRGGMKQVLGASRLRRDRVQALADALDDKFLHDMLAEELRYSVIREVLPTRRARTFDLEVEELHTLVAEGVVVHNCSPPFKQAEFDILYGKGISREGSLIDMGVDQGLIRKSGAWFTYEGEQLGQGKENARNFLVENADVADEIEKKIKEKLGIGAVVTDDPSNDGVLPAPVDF

Paired box protein Pax-8 = Paired box protein Pax-8 (Homo sapiens, UniProt Q06710); test: PAX8 transcriptional activity inhibition in RMG-I – RMG-I cells, luciferase, cherry-pick, dose response (AID 687027); type: functional, cell-based;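 note: luciferase reporter driven by Pax8 target thyroperoxidase promoter measured by SteadyGlo luminescence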
[15] = Intein inhibitors as potential Tuberculosis drugs, a cytotoxicity screen. [Related pubchem assays (depositor defined):AID2221, AID2223, AID434968, AID435010, AID449749, AID449750, AID489010]; type: functional
[16] = viability of HCT116 lacking mutant beta-catenin – cell-based, human colon tumor, dose response (AID 1045); type: functional;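 note: HCT116 colon tumor cells with beta catenin knocked out; cells exposed to compound for 60 hours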
[17] = general cell-killing toxicity readout – plate reader, dry powder samples, cytotoxicity control for PAX8 inhibitor project, dose response (AID 743021); type: functional, cell-based
[18] = target: T2, Replicative DNA helicase DnaB (Mycobacterium tuberculosis, UniProt P9WMR3); test: DnaB intein splicing inhibitors, dose response, biochemical, cell-free fluorescence (AID 449749); type: functional
T2 sequence (P9WMR3 whole entry): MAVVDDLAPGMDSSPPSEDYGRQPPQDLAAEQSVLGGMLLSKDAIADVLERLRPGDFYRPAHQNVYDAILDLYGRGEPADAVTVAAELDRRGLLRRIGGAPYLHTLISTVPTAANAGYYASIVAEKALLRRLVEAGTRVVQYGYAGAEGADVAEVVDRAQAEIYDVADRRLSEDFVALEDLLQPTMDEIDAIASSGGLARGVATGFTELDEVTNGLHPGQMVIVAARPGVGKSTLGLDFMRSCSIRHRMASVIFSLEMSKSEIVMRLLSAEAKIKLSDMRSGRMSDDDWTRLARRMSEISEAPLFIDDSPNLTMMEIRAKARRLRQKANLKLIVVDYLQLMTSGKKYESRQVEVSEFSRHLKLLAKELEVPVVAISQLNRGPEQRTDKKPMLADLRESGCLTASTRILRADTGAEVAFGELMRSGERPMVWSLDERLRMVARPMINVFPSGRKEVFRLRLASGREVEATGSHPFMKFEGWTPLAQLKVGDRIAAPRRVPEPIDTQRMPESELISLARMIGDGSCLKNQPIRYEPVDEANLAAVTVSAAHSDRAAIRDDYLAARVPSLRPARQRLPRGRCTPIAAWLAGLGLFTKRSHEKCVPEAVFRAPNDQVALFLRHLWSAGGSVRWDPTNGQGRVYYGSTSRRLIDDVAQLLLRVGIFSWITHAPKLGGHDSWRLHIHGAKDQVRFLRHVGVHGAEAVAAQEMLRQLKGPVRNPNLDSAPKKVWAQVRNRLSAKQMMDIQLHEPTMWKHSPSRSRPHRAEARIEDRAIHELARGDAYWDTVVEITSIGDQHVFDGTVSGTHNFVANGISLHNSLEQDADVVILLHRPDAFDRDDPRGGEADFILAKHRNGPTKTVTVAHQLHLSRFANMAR

[19] = viability of PTEN-deleted HCT116 cells – cell-based, HCT116 PTEN knockout, dose response (AID 1047); type: functional;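 note: HCT116 colon tumor cells with PTEN knocked out; cells exposed to compound for 60 hours before readout; potency for loss of cell viability measured by luminescence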
H9c2 = test: cells; type: functional, cell-based; conditions: Rattus norvegicus, H9c2, Myocardium;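 note: confirmatory concentration-response retest of ultra-high-throughput screening hits for modulation of myocardial damage; cell death induced by hydrogen peroxide oxidative stress; compound pretreatment for 60 min then peroxide exposure for 2 h; potency is for protecting the cells against peroxide damage rather than for killing them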
[20] = target: T3, Type-1 angiotensin II receptor (Homo sapiens, UniProt P30556); test: agonist activity at AGTR1 – cell-based, uHTS hits, selectivity assay for APJ receptor agonist project, dose response (AID 488865); type: functional;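 note: beta-arrestin recruitment to AT1 measured by enzyme fragment complementation luminescence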
T3 sequence (P30556 whole entry): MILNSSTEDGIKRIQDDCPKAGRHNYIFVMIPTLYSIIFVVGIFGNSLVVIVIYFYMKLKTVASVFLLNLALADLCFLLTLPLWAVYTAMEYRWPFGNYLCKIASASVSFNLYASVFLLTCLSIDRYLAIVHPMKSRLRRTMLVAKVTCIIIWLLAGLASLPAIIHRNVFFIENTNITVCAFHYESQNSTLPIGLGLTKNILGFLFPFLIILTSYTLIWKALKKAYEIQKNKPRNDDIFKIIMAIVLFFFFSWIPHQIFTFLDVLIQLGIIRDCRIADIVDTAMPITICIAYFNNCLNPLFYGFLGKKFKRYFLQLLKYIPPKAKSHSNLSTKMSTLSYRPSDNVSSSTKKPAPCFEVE

Sequence of Paired box protein Pax-8 (Q06710 whole entry): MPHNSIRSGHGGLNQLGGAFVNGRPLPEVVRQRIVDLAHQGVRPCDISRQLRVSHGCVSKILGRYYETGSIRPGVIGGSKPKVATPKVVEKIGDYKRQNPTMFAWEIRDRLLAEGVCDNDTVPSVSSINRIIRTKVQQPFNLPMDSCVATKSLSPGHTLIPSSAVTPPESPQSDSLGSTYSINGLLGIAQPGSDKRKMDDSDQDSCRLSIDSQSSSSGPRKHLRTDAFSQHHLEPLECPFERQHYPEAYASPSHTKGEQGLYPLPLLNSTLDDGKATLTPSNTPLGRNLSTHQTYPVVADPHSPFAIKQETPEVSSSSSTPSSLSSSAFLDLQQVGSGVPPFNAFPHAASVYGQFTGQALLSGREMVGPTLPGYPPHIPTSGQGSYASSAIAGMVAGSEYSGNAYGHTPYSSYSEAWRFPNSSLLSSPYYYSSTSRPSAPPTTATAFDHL
Sequence of Ion channel NompC (Q7T1G6 whole entry): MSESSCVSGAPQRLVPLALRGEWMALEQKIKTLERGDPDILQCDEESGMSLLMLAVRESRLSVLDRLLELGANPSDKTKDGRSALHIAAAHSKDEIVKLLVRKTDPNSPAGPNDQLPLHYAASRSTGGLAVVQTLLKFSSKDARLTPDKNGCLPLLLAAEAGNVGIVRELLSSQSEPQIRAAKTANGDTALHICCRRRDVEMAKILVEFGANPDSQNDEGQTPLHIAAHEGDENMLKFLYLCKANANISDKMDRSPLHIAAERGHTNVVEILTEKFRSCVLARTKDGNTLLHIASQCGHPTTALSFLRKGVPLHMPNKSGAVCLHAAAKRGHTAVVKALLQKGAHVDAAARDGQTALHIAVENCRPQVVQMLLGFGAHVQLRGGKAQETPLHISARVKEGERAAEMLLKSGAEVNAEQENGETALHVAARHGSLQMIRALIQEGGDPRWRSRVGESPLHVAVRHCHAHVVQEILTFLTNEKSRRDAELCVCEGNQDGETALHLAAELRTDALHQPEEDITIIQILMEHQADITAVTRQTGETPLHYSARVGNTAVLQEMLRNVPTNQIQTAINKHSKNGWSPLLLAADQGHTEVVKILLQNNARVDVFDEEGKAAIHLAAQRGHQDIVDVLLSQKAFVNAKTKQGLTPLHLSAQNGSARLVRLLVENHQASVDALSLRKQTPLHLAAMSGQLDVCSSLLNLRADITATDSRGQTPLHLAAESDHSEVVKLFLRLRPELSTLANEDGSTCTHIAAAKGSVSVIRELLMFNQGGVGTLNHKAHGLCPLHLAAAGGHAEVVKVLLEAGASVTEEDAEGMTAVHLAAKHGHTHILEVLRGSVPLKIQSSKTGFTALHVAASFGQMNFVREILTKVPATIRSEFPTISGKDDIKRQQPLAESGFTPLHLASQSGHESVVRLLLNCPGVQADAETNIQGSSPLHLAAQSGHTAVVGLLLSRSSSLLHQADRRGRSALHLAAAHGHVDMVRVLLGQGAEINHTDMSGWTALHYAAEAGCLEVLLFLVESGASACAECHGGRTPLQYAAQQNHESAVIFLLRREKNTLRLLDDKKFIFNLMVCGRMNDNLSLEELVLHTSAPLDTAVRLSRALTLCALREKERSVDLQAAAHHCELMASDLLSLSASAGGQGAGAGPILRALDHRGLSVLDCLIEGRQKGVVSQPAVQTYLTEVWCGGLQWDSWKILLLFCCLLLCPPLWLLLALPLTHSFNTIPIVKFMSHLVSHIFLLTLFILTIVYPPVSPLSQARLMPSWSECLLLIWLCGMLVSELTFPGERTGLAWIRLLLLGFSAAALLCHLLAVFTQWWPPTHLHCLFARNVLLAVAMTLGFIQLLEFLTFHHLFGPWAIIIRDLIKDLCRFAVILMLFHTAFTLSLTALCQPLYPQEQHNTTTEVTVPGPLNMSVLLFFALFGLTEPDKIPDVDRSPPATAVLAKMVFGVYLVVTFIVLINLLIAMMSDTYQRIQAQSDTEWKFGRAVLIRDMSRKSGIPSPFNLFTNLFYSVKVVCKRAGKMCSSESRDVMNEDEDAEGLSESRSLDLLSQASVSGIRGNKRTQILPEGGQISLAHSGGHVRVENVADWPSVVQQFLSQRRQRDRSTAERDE
Sequence of Eukaryotic translation initiation factor 4E (P63073 whole entry): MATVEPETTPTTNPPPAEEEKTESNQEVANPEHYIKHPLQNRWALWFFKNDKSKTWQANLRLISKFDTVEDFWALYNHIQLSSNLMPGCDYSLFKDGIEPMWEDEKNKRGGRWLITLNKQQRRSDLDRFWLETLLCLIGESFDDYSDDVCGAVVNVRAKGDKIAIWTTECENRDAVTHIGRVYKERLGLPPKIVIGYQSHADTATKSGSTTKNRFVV
Sequence of Mucolipin-3 (Q8TDD5 whole entry): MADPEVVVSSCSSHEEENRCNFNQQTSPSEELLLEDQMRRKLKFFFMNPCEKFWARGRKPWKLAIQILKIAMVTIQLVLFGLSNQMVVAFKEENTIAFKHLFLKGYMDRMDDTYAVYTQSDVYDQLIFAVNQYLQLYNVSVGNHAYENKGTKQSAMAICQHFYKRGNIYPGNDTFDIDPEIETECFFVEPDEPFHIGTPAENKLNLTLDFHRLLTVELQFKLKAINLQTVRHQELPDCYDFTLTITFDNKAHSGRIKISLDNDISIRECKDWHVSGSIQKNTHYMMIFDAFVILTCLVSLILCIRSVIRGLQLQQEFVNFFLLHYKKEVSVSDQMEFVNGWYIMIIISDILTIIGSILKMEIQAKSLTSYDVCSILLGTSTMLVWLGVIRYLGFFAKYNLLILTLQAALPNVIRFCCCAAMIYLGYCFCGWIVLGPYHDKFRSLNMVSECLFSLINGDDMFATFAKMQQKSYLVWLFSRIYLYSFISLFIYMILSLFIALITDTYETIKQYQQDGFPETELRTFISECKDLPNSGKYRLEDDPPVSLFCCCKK

SMILES: Cc1cc(N2CCCCC2)nc(NCc2ccccc2)n1
- AC50 [1]: 4.01 µM (active)
- IC50 [2]: > 64 µM (inactive)
- AC50 [3]: 6.27 µM (active)
- EC50 (BJ [4]): 17.4 µM (active)
- AC50 [5]: 54.8 µM (active)
- EC50 (Ion channel NompC): > 3.32 µM (inactive)
- CC50 [6]: > 20 µM (active)
- CC50 [7]: > 20 µM (active)
- CC50 [8]: 8.56 µM (active)
- EC50 (BJ [9]): 21.4 µM (active)
- EC50 [10]: 25.9 µM (active)
- EC50 (BJ [11]): > 75 µM (inconclusive)
- EC50 [12]: > 60 µM (not active)
- EC50 (Mucolipin-3): > 3.32 µM (active)
- IC50 (cells): 40.2 µM (active)
- EC50 [13]: 2.04 µM (active)

SMILES: COc1ccc(N(C(=O)CCl)C(C(=O)NCCc2ccccc2)c2cccs2)cc1 (stereo not given)
- EC50 (BJ [14]): 2.69 µM (active)
- EC50 (Protein RecA): 0.327 µM (active)
- EC50 (BJ [4]): 1.22 µM (active)
- AC50 (Paired box protein Pax-8): 2.44 µM (active)
- CC50 [15]: 0.43 µM (active)
- EC50 [16]: 0.986 µM (active)
- AC50 [17]: 4.64 µM (active)
- AC50 [18]: 2.64 µM (active)
- EC50 (BJ [9]): 2.97 µM (inconclusive)
- EC50 [10]: 2.62 µM (active)
- EC50 (BJ [11]): 4.61 µM (active)
- EC50 [19]: 1.1 µM (active)

SMILES: CCOc1ccc2nc(O)c(CN(Cc3ccco3)C(CC)c3nnnn3Cc3ccccc3)cc2c1 (stereo not given)
- IC50 (H9c2): > 79 µM (inactive)
- EC50 [20]: > 100 µM (inactive)
